Data published in EPA's ToxValDB 9.5.
Values joined by “and” are separate entries in the source; they are usually repeats but may differ in a detail not shown here. Equal values may be shown once.

Experiments:
Mus musculus = settings: oral
Rattus norvegicus = settings: acute
[1] = developmental, duration: 17 days, F, CD1, Developmental: 323% increased prenatal loss, 16.7% decreased live fetuses, 24.3% decreased neonatal survival
[2] = developmental, duration: 17 days, F, Developmental: Significantly reduced pup survival (46%) from birth to weaning
[3] = reproduction developmental, duration: 17 days, M, CD1, Body Weight: 32% reduced weight gain during pregnancy
[4] = short-term, duration: 14 days, M, CD1, 6-12% decreased in body weight gain
[5] = short-term, duration: 15 days, F, Body Weight: Weight loss (~5%)
[6] = short-term, duration: 15 days, F, Immunotoxicological: Reduced sRBC-specific response to IgM antibody titers
[7] = short-term, duration: 21 days, M, ICR, Body Weight: 17% decrease in weight gain
[8] = short-term, duration: 21 days, M, ICR, Hepatic: 27% increase in relative liver weight at ?0.5 mg/kg/day / increases in ALT at ?[…] / hepatocytomegaly at 18 mg/kg/day / necrosis…
[9] = short-term, duration: 28 days, M, CD1, Hepatic: Mild hepatocellular hypertrophy at ?0.29, moderate to severe hypertrophy and single cell necrosis at ?0.96 mg/kg/day / decreased …
[10] = duration: 4 hours, inhalation, M, CD, Ocular: Corneal opacity and corrosion
[11] = duration: 15 hours, inhalation, F, Sprague-Dawley, Body Weight: 12% decrease weight gain on GDs 6-15
[12] = duration: 1 days, dermal, M/F, CD, Dermal: Mild skin irritation

O=C([O-])C(F)(F)C(F)(F)C(F)(F)C(F)(F)C(F)(F)C(F)(F)C(F)(F)F.[NH4+] [Ammonium perfluorooctanoate]
LOAEL (Mus musculus; developmental, duration: 1 days, M, CD1, Developmental: Decreased spontaneous activity and altered response to cholinergic stimulant): 0.58 mg/kg-day
LOAEL (Mus musculus; developmental, duration: 10 days, F, CD1, Developmental: Altered mammary gland development in female pups / reduced pup weight on PND 20): 5 mg/kg-day
LOAEL (Mus musculus; developmental, duration: 10 days, F, CD1, Developmental: Delayed mammary gland development (30-60%) in female pups on PNDs 1-10 + Reproductive: Immature mammary gland morphology in …): 5 mg/kg-day
NOAEL (Mus musculus; developmental, duration: 10 days, F, CD1, Hepatic: 40-120% increased relative liver weight in lactating dams on PNDs 1-10): 5 mg/kg-day
LOAEL (Mus musculus; developmental, duration: 11 days, F, CD1, Developmental: Delayed mammary gland development (31-47%) in female pups on PNDs 22-32 and at 18 months): 5 mg/kg-day
LOAEL (Mus musculus; developmental, duration: 11 days, F, CD1, Developmental: Reduced pup body weight at weaning, 43% in males and 35% in females): 5 mg/kg-day
NOAEL (Mus musculus; developmental, duration: 12 days, F): 1 mg/kg-day
LOAEL (Mus musculus; developmental, duration: 12 days, F, Developmental: 7-10% decrease in litter weight on PND 2): 0.5 mg/kg-day
NOAEL (Mus musculus; developmental, duration: 17 days, F): 10 mg/kg-day
LOAEL (Mus musculus; developmental, duration: 17 days, F, CD1, Developmental: 3 mg/kg/day: reduced weight gain through lactation (14.8% in males and 20.6% in females) / delayed eye opening and hair …): 3 mg/kg-day and 5 mg/kg-day
LOAEL (Mus musculus; [1]): 5 mg/kg-day
NOAEL (Mus musculus; [1]): 1 mg/kg-day
LOAEL (Mus musculus; developmental, duration: 17 days, F, CD1, Developmental: Decreased birth weight (approximately 8%) and body weight at weaning (24%)): 5 mg/kg-day
LOAEL (Mus musculus; developmental, duration: 17 days, F, CD1, Developmental: Delayed mammary gland development in female pups on PNDs 22-63 + Reproductive: Delayed mammary gland lactational …): 0.0024 mg/kg-day
LOAEL (Mus musculus; developmental, duration: 17 days, F, CD1, Developmental: Delayed mammary gland development in female pups on PNDs 22-63 and at 18 months): 3 mg/kg-day
LOAEL (Mus musculus; developmental, duration: 17 days, F, CD1, Developmental: Increased prenatal loss / 40% reduced neonatal body weight on PNDs 5 and 10): 5 mg/kg-day
LOAEL (Mus musculus; developmental, duration: 17 days, F, CD1, Reproductive: Delayed mammary gland differentiation): 5 mg/kg-day
LOAEL (Mus musculus; [2]): 0.6 mg/kg-day
NOAEL (Mus musculus; [2]): 0.3 mg/kg-day
NOAEL (Mus musculus; reproduction developmental, duration: 11 days, F, CD1, Body Weight: No alterations in dams dosed on GDs 15-17 + Hepatic: Increase in relative liver weight in dams dosed on GDs 13-17, 10-17, or 7-…): 20 mg/kg-day
NOAEL (Mus musculus; reproduction developmental, duration: 17 days, F, CD1, Hepatic: Significant increase in relative and absolute maternal liver weight on PND 22 at ?3 mg/kg/day): 5 mg/kg-day
LOAEL (Mus musculus; reproduction developmental, duration: 17 days, F, CD1, Reproductive: Delayed mammary gland lactational differentiation in dams on PND 22): 1 mg/kg-day
NOAEL (Mus musculus; reproduction developmental, duration: 17 days, F, Hepatic: Increased absolute and relative liver weight of dams on PND 22 at ?1 mg/kg/day): 20 mg/kg-day
NOAEL (Mus musculus; reproduction developmental, duration: 17 days, M, CD1, 38% increase in absolute liver weight at ?1 mg/kg/day): 1 mg/kg-day
LOAEL (Mus musculus; [3]): 10 mg/kg-day
NOAEL (Mus musculus; [3]): 5 mg/kg-day
NOAEL (Mus musculus; short-term, duration: 14 days, M/F, CD1, Hepatic: 123-155% increase in absolute liver weight in 14 days at ?5.3 mg/kg/day): 537 mg/kg-day
LOAEL (Mus musculus; [4]): 10 mg/kg-day
NOAEL (Mus musculus; [4]): 3 mg/kg-day
NOAEL (Mus musculus; short-term, duration: 14 days, M, CD1, Hepatic: Decreased serum cholesterol levels at ?0.3 mg/kg/day): 30 mg/kg-day
LOAEL (Mus musculus; [5]): 15 mg/kg-day
NOAEL (Mus musculus; [5]): 7.5 mg/kg-day
LOAEL (Mus musculus; [6]): 3.75 mg/kg-day
NOAEL (Mus musculus; [6]): 1.88 mg/kg-day
NOAEL (Mus musculus; short-term, duration: 21 days, M/F, CD1, Hepatic: 39-41% increase in absolute liver weight at ?5.4 mg/kg/day): 5.4 mg/kg-day
NOAEL (Mus musculus; short-term, duration: 21 days, M, ICR): 47 mg/kg-day
LOAEL (Mus musculus; [7]): 18 mg/kg-day
NOAEL (Mus musculus; [7]): 2.6 mg/kg-day
LOAEL (Mus musculus; [8]): 47 mg/kg-day
NOAEL (Mus musculus; [8]): 18 mg/kg-day
LOAEL (Mus musculus; short-term, duration: 28 days, F, CD1, 5/5 died before 4th week of study): 58 mg/kg-day
LOAEL (Mus musculus; short-term, duration: 28 days, F, CD1, Body Weight: Males: final body weight 20% lower than controls / females: final body weight 25% lower than controls): 5.8 mg/kg-day
NOAEL (Mus musculus; short-term, duration: 28 days, M/F, CD1, Hepatic: 3-fold or greater increased absolute and relative liver weight and hepatocellular hypertrophy at ?5.4 mg/kg/day): 18 mg/kg-day
LOAEL (Mus musculus; short-term, duration: 28 days, M, CD1, Body Weight: Males: final body weight 20% lower than controls / females: final body weight 25% lower than controls): 5.4 mg/kg-day
LOAEL (Mus musculus; short-term, duration: 28 days, M, CD1, Body Weight: Weight loss (86% of controls)): 9.6 mg/kg-day
NOAEL (Mus musculus; short-term, duration: 28 days, M, CD1, Body Weight: Weight loss (86% of controls) + Immunotoxicological: Decreased response to sRBC, decreased number of splenic and thymic …): 0.96 mg/kg-day
LOAEL (Mus musculus; short-term, duration: 28 days, M, CD1, Death: 4/5 died before end of 4th week): 54 mg/kg-day
LOAEL (Mus musculus; short-term, duration: 28 days, M, CD1, Death: 5/5 died before 2nd week of study): 180 mg/kg-day
LOAEL (Mus musculus; [9]): 0.96 mg/kg-day
NOAEL (Mus musculus; [9]): 0.29 mg/kg-day
LOAEL (Mus musculus; short-term, duration: 28 days, M, CD1, Immunotoxicological: Decreased response to sRBC, decreased number of splenic and thymic lymphocytes): 9.6 mg/kg-day
LOAEL (Rattus norvegicus; duration: 1 hours, inhalation, M/F, albino, Neurological: Excessive salivation + Ocular: Red material around the eyes / lacrimation + Respiratory: Red nasal discharge / dry rales): 18600 mg/m3
LOAEL (Rattus norvegicus; duration: 4 hours, inhalation, M, CD, Body Weight: Weight loss for 1-2 days after exposure (data not shown) + Respiratory: Pulmonary edema): 380 mg/m3
LOAEL (Rattus norvegicus; duration: 4 hours, inhalation, M, CD, Death: LC50): 980 mg/m3
LOAEL (Rattus norvegicus; duration: 4 hours, inhalation, M, CD, Gastrointestinal: Stomach irritation): 380 mg/m3
NOAEL (Rattus norvegicus; duration: 4 hours, inhalation, M, CD, Hepatic: Liver enlargement at 810 mg/m3 / no histological alterations): 810 mg/m3
LOAEL (Rattus norvegicus; [10]): 810 mg/m3
NOAEL (Rattus norvegicus; [10]): 380 mg/m3
LOAEL (Rattus norvegicus; [11]): 10 mg/m3
NOAEL (Rattus norvegicus; [11]): 1 mg/m3
LOAEL (Rattus norvegicus; duration: 15 hours, inhalation, F, Sprague-Dawley, Death: 3/12 deaths on GDs 12, 13, and 17): 25 mg/m3
NOAEL (Rattus norvegicus; duration: 15 hours, inhalation, F, Sprague-Dawley, Hepatic: 18% increase absolute liver weight at 25 mg/m3): 25 mg/m3
LOAEL (Rattus norvegicus; duration: 1 days, dermal, M/F, CD, Body Weight: 5-7% transient weight loss): 3000 mg/kg-day
LOAEL (Rattus norvegicus; [12]): 5000 mg/kg-day
NOAEL (Rattus norvegicus; [12]): 3000 mg/kg-day
LOAEL (Rattus norvegicus; duration: 1 days, dermal, M, CD, Death: 14-day LD50): 7000 mg/kg-day
LOAEL (Rattus norvegicus; duration: 1 days, oral, F, albino, Death: LD50): 430 mg/kg-day
LOAEL (Rattus norvegicus; duration: 1 days, oral, M, albino, Death: LD50): 680 mg/kg-day
